Results as given in US20080051372A1, “METHODS UTILIZING CELL-SIGNALING LYSOPHOSPHOLIPIDS” (THE SCRIPPS RESEARCH INSTITUTE, priority 2006, published 2008).

How the values were obtained:
[1] = tested on: cortical neuronal progenitors (E14) plated onto cortical astrocyte monolayers; experiment: neuron-astrocyte co-culture on astrocytes previously treated with LPA; assay type: cell-based, mouse
Experimental: All animal protocols were approved by the Animal Research Committee of The Scripps Research Institute, conformed to National Institutes of Health guidelines and public law. Astrocyte primary cultures were prepared from cerebral cortex of newborn mice as previously described (de Sampaio e Spohr et al., Neuron-glia interaction effects on GFAP gene: a novel role for transforming growth factor-31, 2002, Eur J Neurosci, 16:2059-2069, incorporated herein by reference and Sousa et al., Glial fibrillary acidic protein gene promoter is differently modulated by transforming growth factor-beta 1 in astrocytes from distinct brain regions, 2004, Eur Neurosci, 19(7):1721-1730, incorporated by reference in its entirety). Astrocytes cultures were generated from C57B1/6 and Swiss mice. Briefly, after the mice were anesthetized, they were decapitated, brain structures were removed and the meninges were carefully stripped off. Dissociated cells were plated onto glass coverslips in 24 wells-plate (Corning Incorporated, NY), previously coated with polyornithine (1.5 μg/ml, mol. wt. 41,000, Sigma Chemical Co., St. Louis, Mo.), in DMEM/F12 medium supplemented with 10% fetal calf serum (Invitrogen, Carlsbad, Calif.). The cultures were incubated at 37° C. in a humidified 5% CO2, 95% air chamber for 10 days until reaching confluence. For experiments with LPA null mice, embryos from LPA, LPA2 double-heterozygous females (on a mixed background C57B1/6×129SW) were genotyped by PCR using DNA isolated from a small part of the tail (Contos et al., Requirement of the LPA, lysophosphatidic acid receptor gene in normal suckling behavior, 2000, PNAS, 97(24):13384-13389, incorporated herein by reference; Contos et al., Characterization of LPA(2) (Edg4) and LPA(I)/LPA(2) (edg2/Edg4) lysophosphatidic acid receptor knockout mice: signaling deficits without obvious pehotypic abnormality attributable to LPA(2), 2002, Mol Cell Bio, 22(19):6921-6929, incorporated herein by reference).
After reaching confluence, glial mono layers were washed three times with serum-free DMEM/F12 medium and incubated as previously described for an additional day in serum-free medium. Cultures were then treated with 1 μM LPA (Oleoyl-LPA, Avanti Polar Lipids) in DMEM/F12 supplemented with 0.1% fatty-acid free bovine serum albumin (FAFBSA, Sigma) for 4 hours. Control astrocyte carpets were treated with DMEM/F12 supplemented with 0.1% FAFBSA. Medium was then replaced by DMEM/F12 without serum and used as substrate in neuron-astrocyte assays.
For neuronal cultures, timed-pregnant BALB/c females (Simonsen Laboratories), C57B1/6 females or Swiss females were killed by halothane followed by cervical dislocation, and embryos were removed at the day 14 (E14). Cortical progenitors were prepared from cerebral hemispheres from E14 embryos as previously described (Martinez and Gomes, 2002, Neuritogenesis induced by thyroid hormone-treated astrocytes is mediated by epidermal growth factor/mitogen-activated protein kinase-phosphatidylinositol 3-kinase pathways and involves modulation of extracellular matrix proteins, J Biol Chem, 277:49311-49318, incorporated herein by reference; Sousa et al., 2004, Glial fibrillary acidic protein gene promoter is differently modulated by transforming growth factor-beta 1 in astrocytes from distinct brain regions, 2004, Eur J Neurosci 19(7):1721-17302004, incorporated herein by reference). Briefly, cells were freshly dissociated from cerebral hemispheres and 1×10^5 cells plated onto glial monolayer carpets non-treated or previously treated with LPA or LPA-conditioned medium for 4 hours as previously described. In the case of LPA CM assays, the medium was not replaced after 4 hours of treatment; instead it was left until the end of co-culture. Co-cultures were kept for 24 hours at 37° C. in a humidified 5% CO2, 95% air atmosphere. […]

[2] = tested on: TR mouse cerebral cortical immortalized neuroblast cells; experiment: LPA-like activity bioassay, cell rounding / neurite retraction; assay type: cell-based; settings: concentrations from 1 to 100 nM of LPA; 15-30 minutes
Experimental: LPA-like activity was assayed by measuring morphological changes in TR mouse cerebral cortical immortalized neuroblast cells as previously described (Chun and Jaenisch, Clonal cell lines produced by infection of neocortical neuroblast using multiple oncogenes transduced by retroviruses, 1996, Mol Cell Neurosci, 18:379-383; Hecht et al., Ventricular zone gene-1 (vzg-I) encodes a lysophoshpatidic acid receptor expressed in neurogeneic regions of the developing cerebral cortex, 1996, J Cell Bio, 135:1071-1083, incorporated herein by reference; Ishii et al., Functional comparisons of the lysophosphatidic acid receptors, LPA(A1)IVZG-I/EDG-2, LP(A2)/EDG-4, and LP(A3)/EDG-7 in neuronal cell lines using a retrovirus expression system, 2000, Molecular Pharmacology, 58(5):895-902, incorporated herein by references; Fukushima et al., Lysophosphatidic acid influences the morphology and motility of young, postmitotic cortical neurons, 2002, Mol Cell Neurosci, 20(2):271-282, incorporated herein by reference). […] After this period, cells were fixed with 4% PFA and round cells were counted under phase-contrast optics (A-F). […]
After this period, cells were fixed with 4% PFA and round cells were counted under phase-contrast optics (A-F) The cell number was expressed by percentage of protophasmic, non-round population. […]

[3] = tested on: astrocyte primary cultures from wild type and LPA double-null newborn mice; experiment: astrocyte morphology and GFAP immunostaining after LPA; assay type: cell-based, mouse; settings: 1 μM LPA for 24 hours; wild type and LPA1 LPA2 null astrocytes
Description: The Generation of Receptor-Null Mice Allows not Only Direct Examination of the systemic roles of LPA receptors in vivo (Contos et al., Requirement of the LPA1 lysophosphatidic acid receptor gene in normal suckling behavior, 2000, PNAS, 97(24):13384-13389, incorporated herein by reference; Contos et al., Characterization of LPA(2) (Edg4) and LPA(I)/LPA(2) (edg2/Edg4) lysophosphatidic acid receptor knockout mice: signaling deficits without obvious pehotypic abnormality attributable to LPA(2), 2002, Mol Cell Bio, 22(19):6921-6929, incorporated herein by reference) but it also contributes for further elucidation of LPA receptor-specific signaling pathways in receptor-null primary cells (Ishii et al., Functional comparisons of the lysophosphatidic acid receptors, LP(A1))/VZG-1/EDG-4, and LP(A3)/EDG-7 in neuronal cell lines using a retrovirus expression system, 2000, Mol. Pharmacology, 58:895-902, incorporated herein by reference). To determine whether LPA effects in the co-culture system are mediated by specific LPA receptors, astrocyte mono layers derived from mice with null mutations in both LPA1 and LPA2 receptors were prepared. Astrocyte primary cultures were prepared from cerebral cortex of wild type and LPA double-null newborn mice. Astrocyte mono layers were kept in DMEM/F12 medium supplemented with 10% fetal calf serum for days until reaching confluence. […]

[4] = tested on: cortical neuronal progenitors plated onto astrocyte monolayers derived from LPA1 LPA2 null mice; experiment: co-culture on LPA1 LPA2 null astrocytes previously treated with LPA; assay type: cell-based, mouse; settings: P>0.05
Experimental: In order to address the involvement of LPA receptor in LPA-astrocyte effects on neuronal morphogenesis, cortical neuronal progenitors derived from E14 wild type mice were plated onto cortical astrocyte mono layers derived from LPA, LPA2 null mice previously treated with LPA. After 24 hours, cells were immunostained for the neuronal marker, β-tubulin III, and the number of neurons and arborization of their neurites were measured. […] The scale bar in FIG. 8 corresponds to 50 μm.

[5] = tested on: cortical neuronal progenitors on retroviral infected LPA1/LPA2 double-null astrocytes; experiment: retroviral rescue of LPA1/LPA2 double-null astrocytes, co-culture; assay type: cell-based, mouse
Experimental: Retroviral vectors expressing LPA1 or LPA2 were reported previously (Ishii et al., Functional comparisons of the lysophosphatidic acid receptors, LP(A1)/VZG-1/EDG-4, and LP(A3)/EDG-7 in neuronal cell lines using a retrovirus expression system, 2000, Mol. Pharmacology, 58:895-902, incorporated herein by reference) as depicted in FIG. 8A. LPA1/LPA2 double-null astrocytes were infected with the epitope-tagged LPA1, LPA2, or empty-vector control retrovirus in 4 μg/ml of polybrene to the media of subconfluent proliferating astrocytes plated in a monolayer. Plates were centrifuged (700 g) at 28° C. for 2 hours, and the astrocytes cultured for 48 hours in fresh media. Astrocytes were serum starved for another 24 hours and then used in the assays. Receptor expression was confirmed by epitope-tagged immunolabeling of GFP-positive cells.
The retroviral infected LPA1/LPA2 double-null astrocytes were treated with LPA. The astrocytes monolayers were co-cultured with cortical neuronal progenitors derived from E14 wild type mice. After 24 hours, cells were immunostained for the neuronal marker, β-tubulin III, and the number of neurons and arborization of their neurites were measured.

[6] = tested on: cultured embryonic hippocampal neurons; settings: cited from earlier work
[7] = neurons plated onto LPA-treated astrocytes, P<0.05
[8] = double-null astrocytes infected with either the LPA1 or LPA2 retrovirus, treated with LPA

Oleoyl-LPA
number of caspase positive cells (activated caspase-3) ([1]; after 24 hours of coculture, control vs treated cultures, P>0.05): no difference
increase in the number of β-tubulin III positive cells ([1]; astrocytes treated with 1 μM LPA for 4 hours, 24 hours co-culture, vs control astrocytes, P<0.05): 41%
decrease in the number of aneuritic neurons [1, 7]: 64%
neurons extending three or more neurites [1, 7]: dramatic increase
number of neurons with two neurites [1, 7]: significant increase
total number of cells ([1]; progenitor cells plated onto LPA-astrocyte monolayers, P>0.05): not altered
rounding of TR cells [2]: induced rounding
astrocyte morphology [3]: did not affect astrocyte morphology
neuronal population ([4]; LPA1 LPA2 null astrocytes treated with LPA, 24 hours): did not affect neuronal population
neuronal death ([4]; treated vs non-treated LPA1 LPA2 null astrocytes): did not differ
prevalence of greater than two neurites/neurons [5, 8]: increased prevalence
β-tubulin III cells [5, 8]: increased
neuronal differentiation ([5]; double-null astrocytes infected with empty vector control virus (SOO3), primed with LPA): did not result in an increase

cyclic phosphatidic acid [cPA]
neurite outgrowth [6]: promoted neurite outgrowth
